# Earlier results in patent US20190008973A1, “INTRALIPID-IODINE FOR IMAGING” (priority 2017, published 2019).
# “Also recorded” adds a separate entry of the source. Like-named read-outs stand apart in the source and are kept apart here.
# Assays:
# hippocampus = settings: cited from earlier work
# postoperative delirium = settings: postoperative analgesia; cited from earlier work
# mitochondrial ATPase = target: T1, mitochondrial ATPase (Homo sapiens, UniProt P06576+P25705); settings: reciprocal plots; cited from earlier work
# T1 construct: mitochondrial ATPase prepared by the chloroform extraction method; from tissue; host or cells: mitochondria
# [1] = target: T2, ATPase of F1 particles from bovine heart mitochondria (Bos taurus, UniProt P00829+P19483); settings: read-out: concentration required for 50% inhibition of ATPase activity; cited from earlier work
# T2 construct: F1 particles isolated from bovine heart mitochondria; from tissue; host or cells: bovine heart mitochondria
# [2] = test system: spinal cord ischemia and reperfusion; settings: intrathecal, cited from earlier work
# [3] = test system: levobupivacaine myocardial toxicity; settings: pig, in vivo; cited from earlier work
# brachial plexus [4] = settings: in vivo; cited from earlier work
# brachial plexus [5] = settings: 150 μg clonidine or 200 μg epinephrine with 0.25% bupivacaine; cited from earlier work
# [6] = test system: cardiac arrest caused by bupivacaine intoxication; settings: epinephrine 10 μg/kg, Intralipid 20% 4 ml/kg, vasopressin 2 IU; cited from earlier work
# [7] = test system: hemodynamic compromise owing to bupivacaine intoxication; settings: epinephrine 3 μg/kg or Intralipid 20% 2 ml/kg; cited from earlier work
# drug overdose = settings: after lipid emulsion; cited from earlier work
# spinal anaesthesia = settings: spinal with 40 mg CP 1%; outpatient knee arthroscopy; versus general anaesthesia 142 min, P=0.0047; cited from earlier work
# [8] = test system: cocaine- and cocaethylene-induced cardiac depression; settings: 0.25% lipid emulsion or SBE-β-CD; cited from earlier work
# [9] = test system: I/R injury in late pregnancy; settings: rat, in vivo; cited from earlier work
# clomipramine toxicity = settings: 8 mL/kg 20% Intralipid or 2 mL/kg 8.4% sodium bicarbonate, n=4; cited from earlier work
# [10] = test system: propofol-mediated hypotension; settings: cited from earlier work
# [11] = test system: cardiac and regional blood flow; settings: propofol 4 mg/kg then 0.6 mg/kg/min; Intralipid 0.25 ml/kg then 0.06 ml/kg/min; cited from earlier work
# oxygen desaturation = settings: in vivo; cited from earlier work
# [12] = test system: ischemia-reperfusion (IR) injury; settings: sham-operated hearts; cited from earlier work
# [13] = test system: ischemia/reperfusion injury; settings: cited from earlier work
# brachial plexus [14] = settings: in vivo; cited from earlier work; remark: listed apart in the source
# brachial plexus [15] = settings: in vivo; cited from earlier work; remark: listed apart in the source
# brachial plexus [16] = settings: 30 ml, cited from earlier work
# axillary plexus = settings: in vivo; cited from earlier work
# brachial plexus [17] = settings: in vivo; cited from earlier work; remark: listed apart in the source
# [18] = test system: N43 hypothalamic neuronal cells; settings: cited from earlier work
molecule,measurement,setting,value
CCCCCC(O)C=CC=CCCCCCCCC(=O)O (stereo not shown) [13-hydroxyoctadecadienoic acid],increase of somatic paired-pulse facilitation,hippocampus,80%
CCOC(=O)C1(c2ccccc2)CCN(C)CC1 [meperidine],delirium incidence,postoperative delirium,significantly higher
CCCCNc1ccc(C(=O)OCCN(C)C)cc1 [tetracaine],kind of inhibition,mitochondrial ATPase,non-competitive
same,IC50,[1],1.1 mM
same,neurologically normal animals,[2]; aortic occlusion 25 minutes,100%
same,neurologically normal animals,[2]; aortic occlusion 30 minutes,86%
CCCCN1CCCC[C@H]1C(=O)Nc1c(C)cccc1C [levobupivacaine],haemodynamic effects of IV injection,[3],induced sinus bradycardia and reduced dMAP and LV dP/dtmax
same,need for rescue analgesics,brachial plexus [4],55%
CNC[C@H](O)c1ccc(O)c(O)c1 [epinephrine],duration of block,brachial plexus [5],728.3 ± 35.8 min
same,survival,[6],71%
same,survival,[7],100%
Cn1c(=O)c2c(ncn2C)n(C)c1=O [caffeine],plasma caffeine level,drug overdose,> 120 mg/L
"CCN(CC)CCOC(=O)c1ccc(N)cc1Cl [CP 1%, Chloroprocaine]",Time to reaching discharge criteria,spinal anaesthesia,117 min
sulfobutylether-β-cyclodextrin [SBE-β-CD],cardiac depression in Langendorff hearts,[8],mild cardio depressant effect; also recorded: mild cardiodepressant effect
O=[N+]([O-])c1ccc2c(c1)S(=O)(=O)C=C2 [Stattic],effect of inhibitor on ITLD-induced cardioprotection,[9],fully abolished
"O=C([O-])O.[Na+] [bicarbonate, sodium bicarbonate]",circulation in second phase (severe toxicity),clomipramine toxicity,developed pulseless electrical activity
"CC(C)c1cccc(C(C)C)c1O [Propofol, propofol]",drop in MAP,[10]; 10 mg/kg IV,55+/−2%
same,lowering of MAP,[10]; under chlorisondamine and phenylephrine,12+/−4%
same,cardiac and regional hemodynamic changes,[11],"increases in heart rate, coronary and carotid blood flows, and decreases in systemic vascular resistance and dP/dt"
same,odds ratio for oxygen desaturation,oxygen desaturation,5.22 (95% CI 1.78-15.35)
COc1cccc(-c2cc(=O)c3ccccc3o2)c1N [PD98059],effect of inhibitor on infarct-sparing effect of ILP,[12],only partially
same,effect of inhibitor on Intralipid-induced cardioprotection,[13],only partially
CCCN1CCCC[C@H]1C(=O)Nc1c(C)cccc1C [ropivacaine],muscle relaxation judged as excellent,brachial plexus [14],35/49
same,need for rescue analgesics,brachial plexus [4],65%
same,duration of motor blocks,brachial plexus [15],12±5
same,duration of sensorial analgesia,brachial plexus [15],13.4±6
same,duration of motor block,brachial plexus [16]; listed as 0.5% ropivacaine,8.29 h
same,duration of sensory block,brachial plexus [16]; listed as 0.5% ropivacaine,9.02 h
same,onset of motor block,brachial plexus [16]; listed as 0.5% ropivacaine,22.23 ± 4.05 min
same,onset of sensory block,brachial plexus [16]; listed as 0.5% ropivacaine,17.79 ± 5.03 min
same,duration of motor block,brachial plexus [16]; listed as 0.75% ropivacaine,7.89 h
same,duration of sensory block,brachial plexus [16]; listed as 0.75% ropivacaine,8.87 h
same,onset of motor block,brachial plexus [16]; listed as 0.75% ropivacaine,22.33 ± 5.17 min
same,onset of sensory block,brachial plexus [16]; listed as 0.75% ropivacaine,18.48 ± 6.14 min
same,mean time of block offset,axillary plexus,13.5 h
same,patients requiring supplementation,brachial plexus [17],8 of the 22
CCCCC/C=C\C/C=C\CCCCCCCC(=O)O [linoleic acid],palmitic acid-induced inflammation,[18],reduces palmitic acid-induced inflammation
